Source: patent publication US7914821B2, “Pharmaceutical composition for prevention and/or treatment of bone loss” (KO DA Pharmaceuticals Co., Ltd., priority 2008, dated 2011)

What was measured:
p38 mutant cell (DN-p38) = assay: ALP activity in p38 mutant cell; type: cell-based; conditions: 10 μM; FIG. 11D
Description: Bone cells were cultured and treated with (1) 10 μM SB203580, (2) 10 μM PD98059, (3) 10 μM imperatori, (4) 10 μM bergapten, (5) 10 μM imperatorin+SB203580, (6) 10 μM bergapten+SB203580, (7) 10 μM imperatorin+PD98059 ? (8) 10 μM bergapten+PD98059 for 48 hrs. After treatment, the bone cells were lysed in 0.2% […] solution and centrifuged at 1500×g for 5 minutes. The supernatant was analyzed by an ALP kit such as described above to obtain the ALP activity. The ALP activity in the control group which was treated with 0.1% DMSO was defined as 100%. Referring to FIG. 11C, p38 inhibitor (SB203580) and ERK inhibitor (PD98059) suppressed the imperatorin and bergapten induced-ALP activity.
The same procedure carried out in Example 20 was repeated. The experiment group used alternative cells and treatment comprising: (1) DN-p38 cell, (2) DN-ERK cell, (3) DN-p38 cell+10 μM imperatorin, (4) DN-p38 cell+10 μM bergapten, (5) DN-ERK cell+10 μM imperatorin, (6) DN-ERK cell+10 μM bergapten, (7) normal bone cell+10 μM imperatorin, and (8) normal bone cell+10 μM bergapten. The ALP activity in the control group which was treated with 0.1% DMSO was defined as 100%. Referring to FIG. 11D, the ALP activity was not induced in p38 mutant cell (DN-p38) and ERK mutant cell (DN-ERK) by imperatorin and bergapten.

Bone cells [1] = assay: ALP activity of bone cells; type: cell-based, rat; conditions: for ALP activity of the bone cells: 0.3, 1, 3, 10 μM, FIG. 8A
Excerpt: Rat primary osteoblast was isolated from the parietal bone of gestation day 18 embryos of Sprague-Dawley rats. After being slaughtered, the embryo rats were obtained from the uteruses of the rats, and calvarium was isolated from the embryo rats. […] The digestion step was repeated five times. […] When cells were attached and confluence, they were sub-cultured, which was called “passage 2 (P2)”. The passage was for analogizing. 2 to 5 passage cells were used for the experiments. Bone cells were treated with 0.3, 1, 3, and 10 μM of imperatorin and bergapten, respectively. After treatment, the osteoblast cells were digested in 0.2% NP-40 solution, and then centrifuged at 1500 g for 5 minutes. The ALP activity of the osteoblast cells was tested using an ALP kit (Roche Applied Science). […] Referring to FIG. 8A, imperatorin and bergapten both increased the ALP activity of the bone cells.

Male Sprague-Dawley rats = assay: Animal experiment: local administration into the tibia; type: in vivo, rat; conditions: for bone volume of tibia metaphysis / BMC / BMD / BV/TV (bone volume/tissue volume): 30 μM every day for a week through needle into tibia; for bone volume of tibia metaphysis: FIG. 12; for increase of bone mineral content / increase of bone mineral density: 'at least' figure, matches Table 3 vs control; for BMC / BMD / BV/TV (bone volume/tissue volume): tibia
Description: Male Sprague-Dawley rats (weighing 78 to 90 grams, at three weeks of age) were anesthetized with […] of trichloroacetaldehyde monohydrate. […] needle was sterilized and injected into the tibia of the rats. One day after the injection, the rats were administered with normal saline as the control, 30 μM imperatorin, and 30 μM bergapten every day for a week through the needle, respectively. Then, the rats were slaughtered after the last administration, and the tibias were immediately isolated after slaughtering and subject to BMD, BMC, and histochemical examination. Referring to FIG. 12, the bone volume of tibia metaphysis was increased by imperatorin and bergapten.

Bone cells [2] = assay: Cell viability (MTT); type: cell-based, rat; conditions: 0.3, 1, 3, 10 μM, 48 hrs, FIG. 7A
Description: (§1) Rat primary osteoblast was isolated from the parietal bone of gestation day 18 embryos of Sprague-Dawley rats. After being slaughtered, the embryo rats were obtained from the uteruses of the rats, and calvarium was isolated from the embryo rats. Parietal bone was cut from the calvarium and digested by 0.1% collagenase for 20 minutes to release the bone cells from the bone tissue. The digestion step was repeated five times. The collected bone cells were cultured in α-MEM containing 1% penicillin-streptomycin and 10% FBS in a humidified atmosphere of 5 percent carbon dioxide. When cells were attached and confluence, they were sub-cultured, which was called “passage 2 (P2)”. The passage was for analogizing. 2 to 5 passage cells were used for the experiments.
Bone cells were cultured in 96-well plate and treated with 0.3, 1, 3, and 10 μM of imperatorin and bergapten for 48 hrs, respectively. After treatment, the cells were reacted with MTT solution (0.5 mg/ml) at 37° C. for 30 minutes, lysed in 100 μl DMSO, and then absorbance was measured at […]. The cell viability in the control group which was treated with 0.1% DMSO was defined as 100%.

SMADs = assay: Phosphorylation of SMADs (western blot); type: cell-based, rat; conditions: 10 μM, 1, 3, 6, 12, 24 hrs; FIG. 10
Description: as §1
Bone cells was cultured in 6-well plate and treated with 10 μM of imperatorin and bergapten for 1, 3, 6, 12, and 24 hrs, respectively. […] Following incubation with the secondary antibody, the membrane was washed three times with PBST, and detected by an […] chemiluminescence using an ECL blotting substrate according to the manufacturer's instructions. […]

Row | Structure (SMILES) | ALP activity in p38 mutant cell (DN-p38) (p38 mutant cell (DN-p38)) | ALP activity of the bone cells (Bone cells [1]) | increase of alkaline phosphatase (ALP) activity (Bone cells [1]; 'at least' figure) [%] | bone volume of tibia metaphysis (Male Sprague-Dawley rats) | increase of bone mineral content (Male Sprague-Dawley rats) [%] | increase of bone mineral density (Male Sprague-Dawley rats) | BMC (Male Sprague-Dawley rats) [g] | BMD (Male Sprague-Dawley rats) [g/mL] | BV/TV (bone volume/tissue volume) (Male Sprague-Dawley rats) [%] | cell viability (Bone cells [2]) | phosphorylation of SMADs (SMADs) | increase of alkaline phosphatase (ALP) activity (Bone cells [1]; 'preferably ... at least' figure)
1 | COc1c2ccoc2cc2oc(=O)ccc12 [bergapten] | not induced | increased | ≥ 80.0 | increased | ≥ 33.7 | at least 12.2% | 0.111 ± 0.003 | 0.101 ± 0.002 | 18.1 ± 0.4 | did not suppress | induced | –
2 | CC(C)=CCOc1c2occc2cc2ccc(=O)oc12 [imperatorin] | not induced | increased | ≥ 6.0 | increased | ≥ 28.91 | at least 12.22% | 0.107 ± 0.003 | 0.101 ± 0.002 | 17.6 ± 0.6 | – | induced | at least 95%
